Earlier results in paper PMC7001544 (JHEP Reports, 2019).

How the values were obtained:
[1] = test system: NTCP
[2] = test system: HBV

For `Cc1c(C)c2c(c(C)c1O)CCC(C)(COc1ccc(CC3SC(=O)NC3=O)cc1)O2` (centres unmarked) [troglitazone], the “effect on NTCP oligomerization” value [1] is given as “prevent NTCP oligomerization” and the “effect on internalization and infection of HBV” value [2] is given as “interfere with internalization and infection of HBV”.
